Literature values as cited in US20090022779A1, “Phenytoin Formulations, and Uses Thereof in Wound Healing” (Royal College of Surgeons in Ireland, priority 2004, published 2009).

Conditions: background statement

solubility in water | Compound
only slightly soluble | O=C1NC(=O)C(c2ccccc2)(c2ccccc2)N1 [Phenyloin, 5,5-diphenylimidazolidine-2,4-dione]
soluble | O=C1N=C([O-])NC1(c1ccccc1)c1ccccc1.[Na+] [Phenyloin sodium salt]
